Measurements published in EP1097139B1, “QUINOLINE DERIVATIVES” (Active Biotech AB, priority 1998, dated 2000).

What was measured:
beagle dogs = experiment: Beagle Pain Syndrome (BPS); type: in vivo; conditions: different breeds of beagle dogs
Experimental: The disease is reflected by clinical and laboratory manifestations justifying BPS as a model for the flu-like syndrome induced by roquinimex in man.
Beagle Pain Syndrome (BPS).
The compounds were administrated intravenously to beagle dogs. The dosage was given for five consecutive days. The dogs were evaluated for clinical and laboratory signs of the pain syndrome, e.g., fever, increased erythrocyte sedimentation rate (ESR), alkaline phosphate (AP), induction of acute phase proteins and vasculitis

[1] = system: acute experimental autoimmune encephalomyelitis (aEAE); experiment: Acute experimental autoimmune encephalomyelitis (aEAE) inhibition; type: in vivo; conditions: at ≥5 mg/kg, mice, treatment control
[2] = system: female rats during pregnancy; conditions: no dose given, background statement; cited from earlier work
man = conditions: e.g. a flu-like syndrome; cited from earlier work
[3] = system: female rats during pregnancy; experiment: Teratogenic effects in the rat; type: in vivo; conditions: dose of 6 mg/kg/day, subcutaneously, day 8 to 14 of pregnancy
From the text: Teratogenic effects in the rat.
The compounds were administrated subcutaneously to female rats during pregnancy, i.e., day 8 to 14 of pregnancy. The rats were caesarean sectioned and necropsied on day 20 after fertilisation. The foetuses were examined for external and internal abnormalities.

For `CN(C(=O)c1c(O)c2ccccc2n(C)c1=O)c1ccccc1` [Roquinimex, roquinimex], the “induction of the Beagle Pain Syndrome (BPS)” value (beagle dogs) is given as “induce the Beagle Pain Syndrome (BPS)”, the “inhibition of acute experimental autoimmune encephalomyelitis (aEAE)” value [1] is given as “more than 50%” and the “teratogenic in the rat” value [2] is given as “teratogenic”. For the same compound, the “side effects in man” value (man) was “induces dose-limiting side effects”.
For `CSc1cccc2c1c(O)c(C(=O)N(C)c1ccc(F)cc1F)c(=O)n2C` [Compound B, N-methyl-N-(2,4-difluoro-phenyl)-1,2-dihydro-4-hydroxy-5-methylthio-1-methyl-2-oxo-quinoline-3-carboxamide], the “Teratogenic effects in the rat” value [3] was “non-teratogenic”.
For `CSc1cccc2c1c(O)c(C(=O)N(C)c1ccccc1)c(=O)n2C` [N-methyl-N-phenyl-1,2-dihydro-4-hydroxy-5-methylthio-1-methyl-2-oxo-quinoline-3-carboxamide], the “Teratogenic effects in the rat” value [3] was “teratogenic”.
In the case of `CCN(C(=O)c1c(O)c2c(SC)cccc2n(C)c1=O)c1ccccc1` [Compound A, N-ethyl-N-phenyl-1,2-dihydro-4-hydroxy-5-methylthio-1-methyl-2-oxo-quinoline-3-carboxamide], the “Teratogenic effects in the rat” value [3] is reported as “non-teratogenic”.
